The test system of this assay is L1210 leukemia ip in BDF1 mice, survival T/C. Description: NCI In Vivo Anticancer Drug Screen. Data for tumor model L1210 Leukemia (intraperitoneal) in B6D2F1 (BDF1) mice. Particulars: endpoint: mean survival time, higher = longer survival. An outline of the steps:
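Tumor cells were implanted, animals were treated, and survival was followed. The result divides the treated measurement by the vehicle-control measurement.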

“And” between values parts separate entries of the source, which are not always exact repeats. Equal values may be shown once. Inconclusive results and toxic doses are left out.

`CC(=O)Nc1ccn(C2OC(COC(C)=O)C(OC(C)=O)C2OC(C)=O)c(=O)n1` (centres undefined): the T/C by setting is: (dose: 6.3 mg/kg/injection, schedule: Q## X090 (ip), vehicle: carboxymethylcellulose (CMC)) 94 % of control; (dose: 12.5 mg/kg/injection, schedule: Q## X090 (ip), vehicle: carboxymethylcellulose (CMC)) 102 % of control; (dose: 18.0 mg/kg/injection, schedule: Q03HX024 (ip), vehicle: other) 114 % of control; (dose: 25.0 mg/kg/injection, schedule: Q## X090 (ip), vehicle: carboxymethylcellulose (CMC)) 97 % of control; (dose: 50.0 mg/kg/injection, schedule: Q## X090 (ip), vehicle: carboxymethylcellulose (CMC)) 102 % of control; (dose: 53.0 mg/kg/injection, schedule: Q01DX Z (ip), vehicle: carboxymethylcellulose (CMC)) 106 % of control. The T/C reads like this: (dose: 75.0 mg/kg/injection, schedule: Q03HX024 (ip), vehicle: other) 168 % of control; (dose: 79.0 mg/kg/injection, schedule: Q01DX Z (ip), vehicle: carboxymethylcellulose (CMC)) 107 % of control; (dose: 119.0 mg/kg/injection, schedule: Q01DX Z (ip), vehicle: carboxymethylcellulose (CMC)) 109 % of control; (dose: 125.0 mg/kg/injection, schedule: Q01DX009 (oral), vehicle: carboxymethylcellulose (CMC)) 115 % of control; (dose: 125.0 mg/kg/injection, schedule: Q03HX024 (oral), vehicle: carboxymethylcellulose (CMC)) 111 % of control; (dose: 125.0 mg/kg/injection, schedule: Q03HX024 (oral), vehicle: water) 123 % of control. The T/C runs as follows: (dose: 150.0 mg/kg/injection, schedule: Q03HX024 (ip), vehicle: other) 195 % of control; (dose: 150.0 mg/kg/injection, schedule: Q04DX003 (ip), vehicle: other) 108 % of control; (dose: 178.0 mg/kg/injection, schedule: Q01DX Z (ip), vehicle: carboxymethylcellulose (CMC)) 119 % of control; (dose: 178.0 mg/kg/injection, schedule: Q01DX Z (ip), vehicle: saline) 116 % of control; (dose: 200.0 mg/kg/injection, schedule: Q01DX001 (ip), vehicle: carboxymethylcellulose (CMC)) 101 % of control; (dose: 200.0 mg/kg/injection, schedule: Q01DX010 (oral), vehicle: carboxymethylcellulose (CMC)) 112 % of control. For the same compound, the T/C is 113 % of control (dose: 250.0 mg/kg/injection, schedule: Q03HX024 (oral), vehicle: carboxymethylcellulose (CMC)); 121 % of control (dose: 250.0 mg/kg/injection, schedule: Q03HX024 (oral), vehicle: water); 228 % of control (dose: 300.0 mg/kg/injection, schedule: Q03HX024 (ip), vehicle: other); 115 % of control (dose: 300.0 mg/kg/injection, schedule: Q04DX003 (ip), vehicle: other); 103 % of control (dose: 400.0 mg/kg/injection, schedule: Q01DX001 (ip), vehicle: carboxymethylcellulose (CMC)); 163 % of control (dose: 400.0 mg/kg/injection, schedule: Q01DX Z (ip), vehicle: saline). The T/C (dose: 500.0 mg/kg/injection, schedule: Q03HX024 (oral), vehicle: carboxymethylcellulose (CMC)) is 124 % of control; the T/C (dose: 600.0 mg/kg/injection, schedule: Q01DX009 (ip), vehicle: other) was 177 % of control and 184 % of control; the T/C (dose: 600.0 mg/kg/injection, schedule: Q01DX Z (ip), vehicle: carboxymethylcellulose (CMC)) is 124 % of control and 246 % of control; the T/C (dose: 600.0 mg/kg/injection, schedule: Q01DX Z (ip), vehicle: saline) was 166 % of control; the T/C (dose: 800.0 mg/kg/injection, schedule: Q01DX001 (ip), vehicle: carboxymethylcellulose (CMC)) was 101 % of control; the T/C (dose: 900.0 mg/kg/injection, schedule: Q01DX Z (ip), vehicle: carboxymethylcellulose (CMC)) was 175 % of control. Also, the T/C (dose: 1000.0 mg/kg/injection, schedule: Q03HX024 (oral), vehicle: carboxymethylcellulose (CMC)) is 122 % of control; the T/C (dose: 1000.0 mg/kg/injection, schedule: Q03HX024 (oral), vehicle: water) was 208 % of control; the T/C (dose: 1200.0 mg/kg/injection, schedule: Q01DX009 (ip), vehicle: other) was 213 % of control and 228 % of control; the T/C (dose: 1200.0 mg/kg/injection, schedule: Q04DX003 (ip), vehicle: other) is 159 % of control; the T/C (dose: 1350.0 mg/kg/injection, schedule: Q01DX Z (ip), vehicle: carboxymethylcellulose (CMC)) was 295 % of control; the T/C (dose: 1600.0 mg/kg/injection, schedule: Q01DX001 (ip), vehicle: carboxymethylcellulose (CMC)) was 124 % of control. Besides, the T/C (dose: 1600.0 mg/kg/injection, schedule: Q01DX010 (oral), vehicle: carboxymethylcellulose (CMC)) was 214 % of control; the T/C (dose: 2000.0 mg/kg/injection, schedule: Q03HX024 (oral), vehicle: water) is 226 % of control; the T/C (dose: 2400.0 mg/kg/injection, schedule: Q01DX009 (ip), vehicle: other) is 112 % of control; the T/C (dose: 2400.0 mg/kg/injection, schedule: Q04DX003 (ip), vehicle: other) was 214 % of control.

Consider `CC(=O)[O][Hg][c]1cc(-c2ccc(N=Nc3c(S(=O)(=O)O)cc4cccc(N)c4c3O)cc2)ccc1N=Nc1c(S(=O)(=O)O)cc2cccc(N)c2c1O`, for which the T/C is 86 % of control (dose: 3.13 mg/kg/injection, schedule: Q01DX009 (ip), vehicle: saline with Tween-80); 86 % of control (dose: 6.25 mg/kg/injection, schedule: Q01DX009 (ip), vehicle: saline with Tween-80); 92 % of control (dose: 12.5 mg/kg/injection, schedule: Q01DX009 (ip), vehicle: saline with Tween-80).

In the case of `Cc1ccc2c(c1)SN(CN1C(=O)c3ccccc3C1=O)N2`, the T/C runs as follows: (dose: 100.0 mg/kg/injection, schedule: Q01DX009 (ip), vehicle: Klucel (hydroxypropylcellulose) (HPC)) 103 % of control; (dose: 100.0 mg/kg/injection, schedule: Q04DX003 (ip), vehicle: Klucel (hydroxypropylcellulose) (HPC)) 94 % of control; (dose: 200.0 mg/kg/injection, schedule: Q01DX009 (ip), vehicle: Klucel (hydroxypropylcellulose) (HPC)) 93 % of control; (dose: 200.0 mg/kg/injection, schedule: Q04DX003 (ip), vehicle: Klucel (hydroxypropylcellulose) (HPC)) 96 % of control; (dose: 400.0 mg/kg/injection, schedule: Q01DX009 (ip), vehicle: Klucel (hydroxypropylcellulose) (HPC)) 90 % of control; (dose: 400.0 mg/kg/injection, schedule: Q04DX003 (ip), vehicle: Klucel (hydroxypropylcellulose) (HPC)) 91 % of control.

`CC(=O)OC1CCC2(C)C(=CCC3C2CCC2(C)C(C(C)C(N)=O)CCC32)C1` (centres undefined): the T/C reads like this: (dose: 100.0 mg/kg/injection, schedule: Q01DX001 (ip), vehicle: Klucel (hydroxypropylcellulose) (HPC)) 90 % of control and 91 % of control; (dose: 200.0 mg/kg/injection, schedule: Q01DX001 (ip), vehicle: Klucel (hydroxypropylcellulose) (HPC)) 94 % of control and 91 % of control; (dose: 400.0 mg/kg/injection, schedule: Q01DX001 (ip), vehicle: Klucel (hydroxypropylcellulose) (HPC)) 87 % of control and 100 % of control.

Turning to `CN1CCN(C(=O)CCCCCCCCC(Br)CBr)CC1` (centres undefined), under “dose: 15.0 mg/kg/injection, schedule: Q01DX001 (ip), vehicle: saline”, the T/C was 103 % of control.

Consider `c1ccc([P+](CCC[P+](c2ccccc2)(c2ccccc2)c2ccccc2)(c2ccccc2)c2ccccc2)cc1`, for which the T/C by setting is: (dose: 2.0 mg/kg/injection, schedule: Q01DX009 (ip), vehicle: saline) 105 % of control; (dose: 2.0 mg/kg/injection, schedule: Q04DX003 (ip), vehicle: saline) 106 % of control; (dose: 4.0 mg/kg/injection, schedule: Q01DX009 (ip), vehicle: saline) 108 % of control; (dose: 4.0 mg/kg/injection, schedule: Q04DX003 (ip), vehicle: saline) 101 % of control; (dose: 8.0 mg/kg/injection, schedule: Q01DX009 (ip), vehicle: saline) 107 % of control; (dose: 8.0 mg/kg/injection, schedule: Q04DX003 (ip), vehicle: saline) 94 % of control and 97 % of control.

Regarding `O=C1C=CC(=Nc2ccc3c(c2)C(Br)c2ccccc2-3)O1` (centres undefined), the T/C is, setting by setting: (dose: 3.12 mg/kg/injection, schedule: Q04DX003 (ip), vehicle: saline) 100 % of control; (dose: 4.5 mg/kg/injection, schedule: Q01DX009 (ip), vehicle: saline) 102 % of control; (dose: 6.25 mg/kg/injection, schedule: Q04DX003 (ip), vehicle: saline) 105 % of control; (dose: 9.0 mg/kg/injection, schedule: Q01DX009 (ip), vehicle: saline) 95 % of control; (dose: 12.5 mg/kg/injection, schedule: Q01DX001 (ip), vehicle: acetone) 100 % of control; (dose: 12.5 mg/kg/injection, schedule: Q04DX003 (ip), vehicle: saline) 103 % of control. For the same compound, the T/C (dose: 18.0 mg/kg/injection, schedule: Q04DX003 (ip), vehicle: saline) was 98 % of control.

`Nc1cccc(S(=O)(=O)N(CCO)CCO)c1`: the T/C reads like this: (dose: 100.0 mg/kg/injection, schedule: Q04DX003 (ip), vehicle: saline) 90 % of control; (dose: 200.0 mg/kg/injection, schedule: Q04DX003 (ip), vehicle: saline) 95 % of control; (dose: 400.0 mg/kg/injection, schedule: Q04DX003 (ip), vehicle: saline) 94 % of control.

The values are drawn from PubChem BioAssay AID248 (DTP/NCI, 2004).
